Data on 21 compounds can be found in patent publication US20240425479A1, “HALO-SUBSTITUTED AMINO AZA-HETEROARYL COMPOUNDS AS INHIBITORS OF THE HAEMATOPOIETIC PROGENITOR KINASE 1 (HPK1)” (priority 2021, published 2024).

For the assay, the target named is T1, Recombinant (1-346) HPK1 (h) (Homo sapiens, UniProt Q92918).
T1 construct: Recombinant (1-346) HPK1 (h) is incubated with 8 mM MOPS pH 7.0
T1 sequence (Q92918 1-346): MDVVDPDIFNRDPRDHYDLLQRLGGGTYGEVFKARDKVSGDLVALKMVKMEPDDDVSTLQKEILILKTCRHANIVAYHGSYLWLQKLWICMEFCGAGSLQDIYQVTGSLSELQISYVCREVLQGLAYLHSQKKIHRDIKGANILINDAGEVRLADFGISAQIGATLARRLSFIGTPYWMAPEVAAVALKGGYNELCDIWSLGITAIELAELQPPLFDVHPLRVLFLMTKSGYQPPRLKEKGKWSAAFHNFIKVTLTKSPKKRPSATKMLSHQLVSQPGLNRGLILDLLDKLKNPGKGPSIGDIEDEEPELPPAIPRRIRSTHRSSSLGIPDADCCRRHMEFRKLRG
Put plainly: HPK1 human STE kinase enzymatic radiometric assay. The assay is classed as biochemical. As to conditions: read-out: HPK1 IC50 nM Range. Put shortly:
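Compounds in 3-fold, 9-point serial dilution; kinase (residues 1-346) phosphorylates myelin basic protein (0.33 mg/mL) using [gamma-33P]-ATP at pH 7.0 (MOPS, EDTA, Mg acetate) for 40 min, room temperature. Acid-quenched mixture filtered onto P30 mats; incorporated radioactivity read by scintillation counting.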
As to `CN(C)[C@@H]1CCOc2ccc(-c3nc(-c4cc5c(cc4F)C(=O)NCC5)c(N)nc3F)cc21` [Example I-288, (R)-6-(3-amino-6-(4-(dimethylamino)chroman-6-yl)-5-fluoropyrazin-2-yl)-7-fluoro-3,4-dihydroisoquinolin-1(2H)-one], the IC50 was in the range of 11 to 100 nM.
`CN(C)Cc1cc(-c2nc(-c3ccc4c(=O)[nH]cc(Cl)c4c3)c(N)nc2F)ccc1N1CCOCC1` [Example I-153, 6-(3-amino-6-(3-((dimethylamino)methyl)-4-morpholinophenyl)-5-fluoropyrazin-2-yl)-4-chloroisoquinolin-1(2H)-one]: the half-maximal inhibitory concentration (IC50) was 0.1 to 10 nM.
For the compound `Cc1[nH]c(=O)c2c(F)cc(-c3nc(-c4ccc(C5CCOCC5)c(CN(C)C)c4)c(F)nc3N)cc2c1Cl` [Example I-104, 6-(3-amino-6-(3-((dimethylamino)methyl)-4-(tetrahydro-2H-pyran-4-yl)phenyl)-5-fluoropyrazin-2-yl)-4-chloro-8-fluoro-3-methylisoquinolin-1(2H)-one], the half-maximal inhibitory concentration (IC50) was 0.1 to 10 nM.
For `Cc1[nH]c(=O)c2c(F)cc(-c3nc(-c4ccc(N5CCN(C(C)C)CC5)cc4)c(F)nc3N)cc2c1F` [Example I-111, 6-(3-amino-5-fluoro-6-(4-(4-isopropylpiperazin-1-yl)phenyl)pyrazin-2-yl)-4,8-difluoro-3-methylisoquinolin-1(2H)-one], the 50% inhibitory concentration (IC50) was 0.1 to 10 nM.
As for `CO[C@@H]1CCN(Cc2cc(-c3nc(-c4cc(F)c5c(c4)CCNC5=O)c(N)nc3F)ccc2N2CCOCC2)C1` [Example I-155, (R)-6-(3-amino-5-fluoro-6-(3-((3-methoxypyrrolidin-1-yl)methyl)-4-morpholinophenyl)pyrazin-2-yl)-8-fluoro-3,4-dihydroisoquinolin-1(2H)-one], the half-inhibitory concentration (IC50) lay in the range of 0.1 to 10 nM.
Regarding `Cc1c[nH]c(=O)c2ccc(-c3nc(-c4ccc(C5CCOCC5)c(CN5CCCC5)c4)c(F)nc3N)cc12` [Example I-205, 6-(3-amino-5-fluoro-6-(3-(pyrrolidin-1-ylmethyl)-4-(tetrahydro-2H-pyran-4-yl)phenyl)pyrazin-2-yl)-4-methylisoquinolin-1(2H)-one], the 50% inhibitory concentration (IC50) was 0.1 to 10 nM.
The same measure for `C[C@@H]1CN(c2ccc(-c3nc(-c4ccc5c(c4)CCNC5=O)c(N)nc3F)cc2)C[C@H](C)N1C` [Example I-57, 6-(3-amino-5-fluoro-6-(4-((3R,5S)-3,4,5-trimethylpiperazin-1-yl)phenyl)pyrazin-2-yl)-3,4-dihydroisoquinolin-1(2H)-one]: 0.1 to 10 nM.
The same measure for `Cc1c[nH]c(=O)c2ccc(-c3nc(-c4ccc(C5CCOCC5)c(CN5CCC5)c4)c(F)nc3N)cc12` [Example I-206, 6-(3-amino-6-(3-(azetidin-1-ylmethyl)-4-(tetrahydro-2H-pyran-4-yl)phenyl)-5-fluoropyrazin-2-yl)-4-methylisoquinolin-1(2H)-one]: 0.1 to 10 nM; for `COc1ccc(-c2nc(-c3cc4c(cc3F)C(=O)NCC4)c(N)nc2F)cc1CN(C)C` [Example I-249, 6-(3-amino-6-(3-((dimethylamino)methyl)-4-methoxyphenyl)-5-fluoropyrazin-2-yl)-7-fluoro-3,4-dihydroisoquinolin-1(2H)-one]: 0.1 to 10 nM.
The same measure for `CC1NC(=O)c2c(F)cc(-c3nc(-c4ccc([C@]56C[C@H]5CN(C5CCC5)C6)cc4)c(F)nc3N)cc2C1(F)F` (stereo partly drawn) [Example I-195, 6-(3-amino-6-(4-((1S,5R)-3-cyclobutyl-3-azabicyclo[3.1.0]hexan-1-yl)phenyl)-5-fluoropyrazin-2-yl)-4,4,8-trifluoro-3-methyl-3,4-dihydroisoquinolin-1(2H)-one]: 11 to 100 nM.
On to `C[C@@H]1CN(c2ccc(-c3nc(-c4ccc5c(=O)[nH]cc(F)c5c4)c(N)nc3F)cc2)C[C@H](C)N1C` [Example I-93, 6-(3-amino-5-fluoro-6-(4-((3R,5S)-3,4,5-trimethylpiperazin-1-yl)phenyl)pyrazin-2-yl)-4-fluoroisoquinolin-1(2H)-one], for which the 50% inhibitory concentration (IC50) was in the range of 0.1 to 10 nM.
On to `CN(C)Cc1cc(-c2nc(-c3cc(F)c4c(=O)[nH]cc(F)c4c3)c(N)nc2F)ccc1N1CCOCC1` [Example I-120, 6-(3-amino-6-(3-((dimethylamino)methyl)-4-morpholinophenyl)-5-fluoropyrazin-2-yl)-4,8-difluoroisoquinolin-1(2H)-one], for which the half-maximal inhibitory concentration (IC50) was in the range of 0.1 to 10 nM.
In the case of `CC(c1cc(-c2nc(-c3ccc4c(=O)[nH]cc(F)c4c3)c(N)nc2F)ccc1O)N(C)C` (stereo not drawn) [Example I-302, 6-(3-amino-6-(3-(1-(dimethylamino)ethyl)-4-hydroxyphenyl)-5-fluoropyrazin-2-yl)-4-fluoroisoquinolin-1(2H)-one] it was 0.1 to 10 nM; in that of `Nc1nc(F)c(-c2ccc(C3CCOCC3)c([C@@H]3CCCN3)c2)nc1-c1cc2c(cc1F)C(=O)NCC2` [Example I-19, (S)-6-(3-amino-5-fluoro-6-(3-(pyrrolidin-2-yl)-4-(tetrahydro-2H-pyran-4-yl)phenyl)pyrazin-2-yl)-7-fluoro-3,4-dihydroisoquinolin-1(2H)-one], 0.1 to 10 nM; in that of `Cc1[nH]c(=O)c2c(F)cc(-c3nc(-c4ccc(N5CCOCC5)c(CN(C)C)c4)c(F)nc3N)cc2c1F` [Example I-116, 6-(3-amino-6-(3-((dimethylamino)methyl)-4-morpholinophenyl)-5-fluoropyrazin-2-yl)-4,8-difluoro-3-methylisoquinolin-1(2H)-one], 0.1 to 10 nM.
The same measure for `Cc1c[nH]c(=O)c2ccc(-c3nc(-c4ccc(N5CCOCC5)c(CN5CCC5)c4)c(F)nc3N)cc12` [Example I-202, 6-(3-amino-6-(3-(azetidin-1-ylmethyl)-4-morpholinophenyl)-5-fluoropyrazin-2-yl)-4-methylisoquinolin-1(2H)-one]: 0.1 to 10 nM; for `CN(C)Cc1cc(-c2nc(-c3cc(F)c4c(c3)CCNC4=O)c(N)nc2F)ccc1F` [Example I-274, 6-(3-amino-6-(3-((dimethylamino)methyl)-4-fluorophenyl)-5-fluoropyrazin-2-yl)-8-fluoro-3,4-dihydroisoquinolin-1(2H)-one]: 101 to 1000 nM.
In the case of `CN(C)Cc1cc(-c2nc(-c3ccc4c(=O)[nH]cc(F)c4c3)c(N)nc2F)ccc1O` [Example I-305, 6-(3-amino-6-(3-((dimethylamino)methyl)-4-hydroxyphenyl)-5-fluoropyrazin-2-yl)-4-fluoroisoquinolin-1(2H)-one] it was 0.1 to 10 nM.
Take `Cc1c[nH]c(=O)c2ccc(-c3nc(-c4ccc5c(c4)[C@H](N(C)C)CO5)c(F)nc3N)cc12` [Example I-284, (S)-6-(3-amino-6-(3-(dimethylamino)-2,3-dihydrobenzofuran-5-yl)-5-fluoropyrazin-2-yl)-4-methylisoquinolin-1(2H)-one]: the IC50 was in the range of 11 to 100 nM.
On to `Cc1nc2cc(-c3nc(-c4ccc(N5CCN(C6CCC6)CC5)cc4)c(F)nc3N)ccc2c(=O)[nH]1` [Example I-76, 7-(3-amino-6-(4-(4-cyclobutylpiperazin-1-yl)phenyl)-5-fluoropyrazin-2-yl)-2-methylquinazolin-4(3H)-one], for which the half-maximal inhibitory concentration (IC50) was in the range of 11 to 100 nM.
In the case of `Nc1nc(F)c(-c2ccc(N3CCN(C4COC4)CC3)cc2)nc1-c1cc2c(cc1F)C(=O)NCC2` [Example I-45, 6-(3-amino-5-fluoro-6-(4-(4-(oxetan-3-yl)piperazin-1-yl)phenyl)pyrazin-2-yl)-7-fluoro-3,4-dihydroisoquinolin-1(2H)-one] it was 11 to 100 nM.
